Experimental data as given in PubChem BioAssay AID1259407 (Chemical Carcinogenesis Research Information System (CCRIS), 2018).
The source made the active and inactive calls. How the calls were made is not given here.

Test system: CCRIS mutagenicity, Ames/micronucleus/aberration tests
Assay: CCRIS mutagenicity studies
Description: The CCRIS database contains chemical records with carcinogenicity, mutagenicity, tumor promotion, and tumor inhibition test results. It was developed by the National Cancer Institute (NCI). Data are derived from studies cited in primary journals, current awareness tools, NCI reports, and other sources. Test results have been reviewed by experts in carcinogenesis and mutagenesis.
CCRIS provides historical information from the years 1985 - 2011. It is no longer updated.
This is an archive assay for CCRIS mutagenicity studies.

[1] = Test System: AMES SALMONELLA TYPHIMURIUM, Strain/Indicator: TA98, Metabolic Activation: NONE, Method: STANDARD PLATE
[2] = Test System: AMES SALMONELLA TYPHIMURIUM, Strain/Indicator: TA98, Metabolic Activation: RAT, LIVER, S-9, AROCLOR 1254, Method: STANDARD PLATE
[3] = Test System: AMES SALMONELLA TYPHIMURIUM, Strain/Indicator: TA100, Metabolic Activation: NONE, Method: STANDARD PLATE
[4] = Test System: AMES SALMONELLA TYPHIMURIUM, Strain/Indicator: TA100, Metabolic Activation: RAT, LIVER, S-9, AROCLOR 1254, Method: STANDARD PLATE
[5] = Test System: AMES SALMONELLA TYPHIMURIUM, Strain/Indicator: TA97, Metabolic Activation: NONE, Method: PREINCUBATION
[6] = Test System: AMES SALMONELLA TYPHIMURIUM, Strain/Indicator: TA98, Metabolic Activation: HAMSTER, LIVER, S-9, AROCLOR 1254 (10%), Method: PREINCUBATION
[7] = Test System: AMES SALMONELLA TYPHIMURIUM, Strain/Indicator: TA98, Metabolic Activation: NONE, Method: PREINCUBATION
[8] = Test System: AMES SALMONELLA TYPHIMURIUM, Strain/Indicator: TA98, Metabolic Activation: RAT, LIVER, S-9, AROCLOR 1254 (10%), Method: PREINCUBATION
[9] = Test System: AMES SALMONELLA TYPHIMURIUM, Strain/Indicator: TA100, Metabolic Activation: HAMSTER, LIVER, S-9, AROCLOR 1254 (10%), Method: PREINCUBATION
[10] = Test System: AMES SALMONELLA TYPHIMURIUM, Strain/Indicator: TA100, Metabolic Activation: NONE, Method: PREINCUBATION
[11] = Test System: AMES SALMONELLA TYPHIMURIUM, Strain/Indicator: TA100, Metabolic Activation: RAT, LIVER, S-9, AROCLOR 1254 (10%), Method: PREINCUBATION
[12] = Test System: AMES SALMONELLA TYPHIMURIUM, Strain/Indicator: TA1535, Metabolic Activation: HAMSTER, LIVER, S-9, AROCLOR 1254 (10%), Method: PREINCUBATION
[13] = Test System: AMES SALMONELLA TYPHIMURIUM, Strain/Indicator: TA1535, Metabolic Activation: NONE, Method: PREINCUBATION
[14] = Test System: AMES SALMONELLA TYPHIMURIUM, Strain/Indicator: TA1535, Metabolic Activation: RAT, LIVER, S-9, AROCLOR 1254 (10%), Method: PREINCUBATION
[15] = Test System: AMES SALMONELLA TYPHIMURIUM, Strain/Indicator: TA1537, Metabolic Activation: HAMSTER, LIVER, S-9, AROCLOR 1254 (10%), Method: PREINCUBATION
[16] = Test System: AMES SALMONELLA TYPHIMURIUM, Strain/Indicator: TA1537, Metabolic Activation: NONE, Method: PREINCUBATION
[17] = Test System: AMES SALMONELLA TYPHIMURIUM, Strain/Indicator: TA1537, Metabolic Activation: RAT, LIVER, S-9, AROCLOR 1254 (10%), Method: PREINCUBATION

| Structure (SMILES) | mutagenic call [1] | mutagenic call [2] | mutagenic call [3] | mutagenic call [4] | mutagenic call [5] | mutagenic call [6] | mutagenic call [7] | mutagenic call [8] | mutagenic call [9] | mutagenic call [10] | mutagenic call [11] | mutagenic call [12] | mutagenic call [13] | mutagenic call [14] | mutagenic call [15] | mutagenic call [16] | mutagenic call [17] | other results |
| --- | --- | --- | --- | --- | --- | --- | --- | --- | --- | --- | --- | --- | --- | --- | --- | --- | --- | --- |
| CCCCCCCCCCCCCCCCCCO | inactive; negative | inactive; negative | inactive; negative | inactive; negative | – | – | – | – | – | – | – | – | – | – | – | – | – | mutagenic call (Test System: AMES SALMONELLA TYPHIMURIUM, Strain/Indicator: TA1535, Metabolic Activation: NONE, Method: STANDARD PLATE): inactive; negative; mutagenic call (Test System: AMES SALMONELLA TYPHIMURIUM, Strain/Indicator: TA1535, Metabolic Activation: RAT, LIVER, S-9, AROCLOR 1254, Method: STANDARD PLATE): inactive; negative; mutagenic call (Test System: AMES SALMONELLA TYPHIMURIUM, Strain/Indicator: TA1537, Metabolic Activation: NONE, Method: STANDARD PLATE): inactive; negative; mutagenic call (Test System: AMES SALMONELLA TYPHIMURIUM, Strain/Indicator: TA1537, Metabolic Activation: RAT, LIVER, S-9, AROCLOR 1254, Method: STANDARD PLATE): inactive; negative; mutagenic call (Test System: AMES SALMONELLA TYPHIMURIUM, Strain/Indicator: TA1538, Metabolic Activation: NONE, Method: STANDARD PLATE): inactive; negative; mutagenic call (Test System: AMES SALMONELLA TYPHIMURIUM, Strain/Indicator: TA1538, Metabolic Activation: RAT, LIVER, S-9, AROCLOR 1254, Method: STANDARD PLATE): inactive; negative; mutagenic call (Test System: E. COLI, Strain/Indicator: WP2, Metabolic Activation: NONE, Method: STANDARD PLATE): inactive; negative; mutagenic call (Test System: E. COLI, Strain/Indicator: WP2, Metabolic Activation: RAT, LIVER, S-9, AROCLOR 1254, Method: STANDARD PLATE): inactive; negative |
| CC1=C(/C=C/C(C)=C/C=C/C(C)=C/C=C/C=C(C)/C=C/C=C(C)/C=C/C2=C(C)CCCC2(C)C)C(C)(C)CCC1 | inactive; negative | inactive; negative | inactive; negative | inactive; negative | inactive; negative | – | – | – | – | – | – | – | – | – | – | – | – | mutagenic call (End Point: IN VITRO CHROMOSOMAL ABERRATIONS, Test System: F344 FEMALE RAT HEPATOCYTE, Metabolic Activation: NONE): active; positive; mutagenic call (End Point: IN VITRO MICRONUCLEUS, Test System: F344 FEMALE RAT HEPATOCYTES, Metabolic Activation: NONE): active; positive; mutagenic call (Test System: AMES SALMONELLA TYPHIMURIUM, Strain/Indicator: TA97, Metabolic Activation: S-9, Method: PREINCUBATION): inactive; negative; mutagenic call (Test System: AMES SALMONELLA TYPHIMURIUM, Strain/Indicator: TA102, Metabolic Activation: NONE, Method: PREINCUBATION): inactive; negative; mutagenic call (Test System: AMES SALMONELLA TYPHIMURIUM, Strain/Indicator: TA102, Metabolic Activation: S-9, Method: PREINCUBATION): inactive; negative |
| Nc1ccc([N+](=O)[O-])c(N)c1 | – | – | – | – | inactive; negative | active; positive | active; positive | active; positive | inactive; negative | inactive; negative | inactive; negative | inactive; negative | inactive; negative | inactive; negative | active; positive | inactive; negative | inactive; negative | mutagenic call (Test System: AMES SALMONELLA TYPHIMURIUM, Strain/Indicator: TA97, Metabolic Activation: HAMSTER, LIVER, S-9, AROCLOR 1254 (10%), Method: PREINCUBATION): inactive; negative; mutagenic call (Test System: AMES SALMONELLA TYPHIMURIUM, Strain/Indicator: TA97, Metabolic Activation: RAT, LIVER, S-9, AROCLOR 1254 (5, 10 OR 30%), Method: PREINCUBATION): inactive; negative |
| O=[N+]([O-])c1ccc2ccc3c([N+](=O)[O-])c4ccccc4c4ccc1c2c34 | active; positive | – | active; positive | – | – | – | active; positive | – | – | – | – | – | – | – | – | – | – | mutagenic call (Test System: AMES SALMONELLA TYPHIMURIUM, Strain/Indicator: TA98(1,8-DNP6), Metabolic Activation: NONE): active; positive; mutagenic call (Test System: AMES SALMONELLA TYPHIMURIUM, Strain/Indicator: TA98(NR), Metabolic Activation: NONE): active; positive; mutagenic call (Test System: AMES SALMONELLA TYPHIMURIUM, Strain/Indicator: TA98(NR), Metabolic Activation: NONE, Method: PREINCUBATION): active; positive; mutagenic call (Test System: AMES SALMONELLA TYPHIMURIUM, Strain/Indicator: TA98, Metabolic Activation: NONE): active; positive |
| Nc1ccn([C@@H]2O[C@H](CO)[C@@H](O)[C@@H]2O)c(=O)n1 | – | – | – | – | – | inactive; negative | inactive; negative | inactive; negative | inactive; negative | inactive; negative | inactive; negative | inactive; negative | inactive; negative | inactive; negative | inactive; negative | inactive; negative | inactive; negative | – |
| O=C(O)/C(Cl)=C(/C(=O)O)C(Cl)Cl | inactive; negative | inactive; negative | – | inactive; negative | – | – | – | – | – | – | – | – | – | – | – | – | – | mutagenic call (Test System: AMES SALMONELLA TYPHIMURIUM, Strain/Indicator: TA97, Metabolic Activation: NONE, Method: STANDARD PLATE): inactive; negative; mutagenic call (Test System: AMES SALMONELLA TYPHIMURIUM, Strain/Indicator: TA97, Metabolic Activation: RAT, LIVER, S-9, PHENOBARBITAL, Method: STANDARD PLATE): inactive; negative; mutagenic call (Test System: AMES SALMONELLA TYPHIMURIUM, Strain/Indicator: TA98, Metabolic Activation: RAT, LIVER, S-9, PHENOBARBITAL, Method: STANDARD PLATE): inactive; negative; mutagenic call (Test System: AMES SALMONELLA TYPHIMURIUM, Strain/Indicator: TA100, Metabolic Activation: RAT, LIVER, S-9, PHENOBARBITAL, Method: STANDARD PLATE): inactive; negative; mutagenic call (Test System: AMES SALMONELLA TYPHIMURIUM, Strain/Indicator: TA102, Metabolic Activation: NONE, Method: STANDARD PLATE): inactive; negative; mutagenic call (Test System: AMES SALMONELLA TYPHIMURIUM, Strain/Indicator: TA102, Metabolic Activation: RAT, LIVER, S-9, AROCLOR 1254, Method: STANDARD PLATE): inactive; negative |
